Consider 37 compounds from BindingDB's records for doi:10.1016/j.bmcl.2003.10.070 (Roche Palo Alto, 2004).

The target of this assay is Prostacyclin receptor (Rattus norvegicus) (UniProt P43253). Kind of assay: Binding affinity towards prostacyclin receptor on rat NG-108-15 neuroblastoma cells, using [3H]iloprost as a radioligand.
Sequence of Prostacyclin receptor (Rattus norvegicus) (P43253 whole entry, looked up): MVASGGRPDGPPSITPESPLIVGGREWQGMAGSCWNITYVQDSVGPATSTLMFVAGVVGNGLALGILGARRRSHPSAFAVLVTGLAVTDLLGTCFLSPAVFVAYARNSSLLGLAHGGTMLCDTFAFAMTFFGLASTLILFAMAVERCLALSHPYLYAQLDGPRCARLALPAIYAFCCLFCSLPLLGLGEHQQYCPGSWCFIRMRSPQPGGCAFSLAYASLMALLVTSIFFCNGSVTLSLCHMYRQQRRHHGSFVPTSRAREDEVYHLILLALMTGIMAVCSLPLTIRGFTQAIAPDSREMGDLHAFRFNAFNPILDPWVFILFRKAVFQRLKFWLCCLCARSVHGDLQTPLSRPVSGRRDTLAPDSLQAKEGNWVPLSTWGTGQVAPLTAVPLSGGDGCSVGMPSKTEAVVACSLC
Regarding `COc1ccc(C(=O)c2ccc(NC3=NCCN3)cc2)cc1`, the affinity, expressed as Ki, was 316 nM.

As for `O=[N+]([O-])c1ccc(Sc2ccc(NC3=NCCN3)cc2)cc1`, the affinity corresponds to a Ki of 316 nM.

As to `Clc1ccc(Sc2ccc(CNC3=NCCN3)cc2)cc1`, the affinity corresponds to a Ki of 501 nM.

For `c1ccc(Sc2ccc(NC3=NCCN3)cc2)cc1`, the inhibition constant (Ki) (commonly the dissociation constant of the complex between target and ligand, obtained from inhibition or displacement) amounted to 794 nM.

The compound `FC(F)(F)c1ccc(Sc2ccc(NC3=NCCN3)cc2)cc1` came in with a Ki of 50 nM.

Consider `COc1ccc(Sc2ccc(CC3=NCCN3)cc2)cc1`, for which the Ki is 5010 nM. Against the preceding compound, the Ki is about 100-fold higher.

Turning to `COc1ccc(Sc2ccc(NC3=NCCCN3)cc2)cc1`, the Ki was determined as 79 nM.

In turn, `c1cc(Sc2ccc3c(c2)OCCO3)ccc1NC1=NCCN1` had an inhibition constant (Ki) of 631 nM.

Turning to `CCOc1ccc(Sc2ccc(NC3=NCCN3)cc2)cc1`, the Ki is 40 nM.

`CC(C)(C)c1ccc(Sc2ccc(NC3=NCCN3)cc2)cc1` displayed a Ki of 398 nM. This Ki lies about 9.9-fold higher than the previous one.

For the compound `COc1ccccc1Sc1ccc(NC2=NCCN2)cc1`, the Ki worked out at 3980 nM.

Turning to `CS(=O)(=O)Nc1ccc(Sc2ccc(NC3=NCCN3)cc2)cc1`, the Ki came out at 79 nM.

Regarding `c1cc(SC2CCCCC2)ccc1NC1=NCCN1`, the affinity corresponds to a Ki of 3160 nM.

In turn, `c1ccc2c(c1)sc1ccc(NC3=NCCN3)cc12` yielded a Ki of 3160 nM. That is a single-digit micromolar value.

On to `COc1ccc(Sc2ccc(C(=N)N)cc2)cc1`, for which the affinity corresponds to a Ki of 1260 nM.

On to `COc1ccc(Sc2ccc(NC3=NC(C)CN3)cc2)cc1` (configuration not stated), for which the affinity, expressed as Ki, was 63 nM.

`CC/N=C(\N)Nc1ccc(Sc2ccc(Cl)cc2)cc1` returned a Ki of 631 nM. Against the preceding compound, the Ki is about 10-fold higher.

`COc1ccc(Oc2ccc(NC3=NCCN3)cc2)cc1` returned a Ki of 158 nM.

For the compound `COc1cccc(Sc2ccc(NC3=NCCN3)cc2)c1`, the Ki is 398 nM.

In turn, `Cc1ccc(Sc2ccc(NC3=NCCN3)cc2)cc1` gave an inhibition constant Ki of 100 nM.

In turn, `CC/N=C(\N)Nc1ccc(Sc2ccc(OC)cc2)cc1` displayed a Ki of 251 nM.

For `COc1ccc(Sc2ccc(C3=NCCN3)cc2)cc1`, the inhibition constant (Ki) amounted to 316 nM.

The compound `COc1ccc(Sc2ccc(NC3=NCCCCN3)cc2)cc1` showed a Ki of 1260 nM.

The compound `COc1ccc(Sc2ccc(NC3=NC(C)(C)CN3)cc2)cc1` came in with a Ki of 631 nM.

With `COc1ccc(OC)c(Sc2ccc(NC3=NCCN3)cc2)c1`, affinity was put at a Ki of 794 nM. This Ki and that of the compound before are within 1.5-fold of each other.

Compound `CC(C)Oc1ccc(Sc2ccc(NC3=NCCN3)cc2)cc1` had a Ki of 32 nM.

Compound `COc1ccc(N(C)c2ccc(NC3=NCCN3)cc2)cc1` yielded an inhibition constant (Ki) of 501 nM.

In turn, `COc1ccc(Sc2cccc(NC3=NCCN3)c2)cc1` had a Ki of 3980 nM.

Consider `COc1ccc(Sc2ccccc2NC2=NCCN2)cc1`, for which affinity was put at a Ki of 631 nM.

`CC(C)c1ccc(Sc2ccc(NC3=NCCN3)cc2)cc1` had a Ki of 251 nM.

`Clc1cccc(Cl)c1Sc1ccc(NC2=NCCN2)cc1` registered a Ki of 631 nM.

`Clc1ccc(Sc2ccc(NC3=NCCN3)cc2)cc1` yielded a Ki of 79 nM.

In turn, `COc1ccc(-c2ccc(NC3=NCCN3)cc2)cc1` gave a Ki of 1000 nM. Compared with the last compound, the Ki is about 13-fold higher.

In the case of `COc1ccc(Sc2ccc(CN3CCCC3)cc2)cc1`, the Ki was 10000 nM. This Ki lies about 10-fold higher than the previous one.

In the case of `CCOC(=O)c1ccc(Sc2ccc(NC3=NCCN3)cc2)cc1`, the affinity, expressed as Ki, was 50 nM.

On to `COc1ccc(Cc2ccc(NC3=NCCN3)cc2)cc1`, for which the Ki came to 25 nM. Against the preceding compound, the Ki is about 2-fold lower.

With `COc1ccc(S(=O)(=O)c2ccc(NC3=NCCN3)cc2)cc1`, affinity was put at a Ki of 158 nM.
